The source made the active and inactive calls. No cut-off for these calls is given here.
How the values were obtained:
[1] = target: Cyclin-dependent kinase 2/cyclin E1 (Homo sapiens, UniProt P24941); assay: Inhibition of recombinant human CDK2/cyclin E after 40 mins by ADP-Glo reagent based luminescence assay; type: protein-complex assay
MDA-MB-231 = assay: Growth inhibition of human MDA-MB-231 cells at 20 uM by MTT assay; type: functional, cell-based
786-0 = assay: Growth inhibition of human 786-O cells at 20 uM by MTT assay; type: functional, cell-based
MDA-MB-468 [2] = assay: Growth inhibition of human MDA-MB-468 cells at 20 uM by MTT assay; type: functional, cell-based
HepG2 = assay: Growth inhibition of human HepG2 cells at 20 uM by MTT assay; type: functional, cell-based
WM 266-4 = assay: Growth inhibition of human WM266.4 cells at 20 uM by MTT assay; type: functional, cell-based
MCF7 = assay: Growth inhibition of human MCF7 cells at 20 uM by MTT assay; type: functional, cell-based
[3] = target: Cyclin-dependent kinase 2 (Homo sapiens) (UniProt P24941); assay: Inhibition of CDK2 in human MDA-MB-468 cells assessed as increase in cleaved PARP expression level at 15 uM measured up to 36 hrs by Western blot analysis; type: cell-based
[4] = target: Cyclin-dependent kinase 2 (Homo sapiens) (UniProt P24941); assay: Inhibition of CDK2 in human MDA-MB-468 cells assessed as increase in cleaved caspase 3 expression level at 15 uM measured up to 36 hrs by Western blot analysis; type: cell-based
[5] = target: Cyclin-dependent kinase 2 (Homo sapiens) (UniProt P24941); assay: Inhibition of CDK2 in human MDA-MB-468 cells assessed as decrease in caspase 3 expression level at 15 uM measured up to 36 hrs by Western blot analysis; type: cell-based
[6] = target: Cyclin-dependent kinase 4/cyclin D1 (Homo sapiens, UniProt P11802); assay: Inhibition of recombinant human CDK4/cyclin D1 after 40 mins by ADP-Glo reagent based luminescence assay; type: protein-complex assay
Cyclin-dependent kinase 4/cyclin D1, sequence (P11802 whole entry): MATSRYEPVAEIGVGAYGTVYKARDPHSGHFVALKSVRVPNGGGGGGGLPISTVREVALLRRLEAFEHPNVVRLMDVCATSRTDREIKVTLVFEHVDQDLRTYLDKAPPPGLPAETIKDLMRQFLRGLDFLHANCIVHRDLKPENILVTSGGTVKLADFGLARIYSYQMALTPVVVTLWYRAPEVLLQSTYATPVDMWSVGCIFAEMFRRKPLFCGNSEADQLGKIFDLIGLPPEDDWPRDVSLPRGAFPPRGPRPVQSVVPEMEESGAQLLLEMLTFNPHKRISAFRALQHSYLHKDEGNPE
Cyclin-dependent kinase 4/cyclin D1, sequence (P24385 whole entry, further chain): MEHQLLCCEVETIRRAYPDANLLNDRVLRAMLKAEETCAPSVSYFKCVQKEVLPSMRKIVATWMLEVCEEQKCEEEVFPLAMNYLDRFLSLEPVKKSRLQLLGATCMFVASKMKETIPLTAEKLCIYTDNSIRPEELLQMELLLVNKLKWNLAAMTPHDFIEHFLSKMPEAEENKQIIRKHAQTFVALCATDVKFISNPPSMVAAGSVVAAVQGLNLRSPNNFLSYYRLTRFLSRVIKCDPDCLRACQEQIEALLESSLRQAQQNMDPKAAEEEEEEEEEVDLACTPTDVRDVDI

CDK6/cyclin D3 = CDK6/cyclin D3 (Homo sapiens, UniProt Q00534); assay: Inhibition of recombinant human CDK6/cyclin D3 after 40 mins by ADP-Glo reagent based luminescence assay; type: protein-complex assay
CDK6/cyclin D3, sequence (P30281 whole entry): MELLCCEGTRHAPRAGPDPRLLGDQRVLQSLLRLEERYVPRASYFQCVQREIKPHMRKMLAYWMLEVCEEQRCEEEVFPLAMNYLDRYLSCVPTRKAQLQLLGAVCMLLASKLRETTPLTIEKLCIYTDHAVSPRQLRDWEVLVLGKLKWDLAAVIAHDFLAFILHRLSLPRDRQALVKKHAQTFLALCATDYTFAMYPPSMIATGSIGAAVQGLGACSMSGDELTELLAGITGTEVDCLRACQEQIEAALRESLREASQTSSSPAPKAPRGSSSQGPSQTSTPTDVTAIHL
CDK6/cyclin D3, sequence (Q00534 whole entry): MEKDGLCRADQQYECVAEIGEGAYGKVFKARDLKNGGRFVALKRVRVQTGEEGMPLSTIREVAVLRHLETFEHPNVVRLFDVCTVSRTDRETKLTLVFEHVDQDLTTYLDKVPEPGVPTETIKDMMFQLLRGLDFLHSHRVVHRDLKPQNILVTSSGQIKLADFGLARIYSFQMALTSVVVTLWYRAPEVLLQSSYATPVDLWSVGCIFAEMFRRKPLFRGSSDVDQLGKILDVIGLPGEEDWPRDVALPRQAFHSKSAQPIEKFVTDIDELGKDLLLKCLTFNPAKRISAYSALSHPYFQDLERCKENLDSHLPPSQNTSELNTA

CDK7/Cyclin H/MNAT1 = CDK7/Cyclin H/MNAT1 (Homo sapiens, UniProt P50613); assay: Inhibition of recombinant human CDK7/cyclin H/MNAT1 after 40 mins by ADP-Glo reagent based luminescence assay; type: protein-complex assay
CDK7/Cyclin H/MNAT1, sequence (P51946 whole entry): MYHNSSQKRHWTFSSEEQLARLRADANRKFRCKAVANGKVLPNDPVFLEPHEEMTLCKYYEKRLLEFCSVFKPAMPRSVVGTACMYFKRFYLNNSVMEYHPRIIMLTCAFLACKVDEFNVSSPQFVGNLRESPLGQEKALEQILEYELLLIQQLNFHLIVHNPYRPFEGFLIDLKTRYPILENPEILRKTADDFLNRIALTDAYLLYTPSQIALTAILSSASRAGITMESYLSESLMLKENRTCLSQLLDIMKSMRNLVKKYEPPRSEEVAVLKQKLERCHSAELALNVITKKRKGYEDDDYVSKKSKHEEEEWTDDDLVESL
CDK7/Cyclin H/MNAT1, sequence (P50613 whole entry): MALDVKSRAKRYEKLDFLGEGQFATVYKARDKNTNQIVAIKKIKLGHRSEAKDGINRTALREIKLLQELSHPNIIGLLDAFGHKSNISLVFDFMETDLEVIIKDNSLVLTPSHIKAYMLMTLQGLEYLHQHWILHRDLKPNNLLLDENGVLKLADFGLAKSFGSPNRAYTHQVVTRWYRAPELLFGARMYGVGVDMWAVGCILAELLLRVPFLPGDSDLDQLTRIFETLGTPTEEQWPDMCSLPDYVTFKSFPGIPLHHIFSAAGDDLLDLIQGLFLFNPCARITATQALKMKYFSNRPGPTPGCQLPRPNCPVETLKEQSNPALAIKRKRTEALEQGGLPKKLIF
CDK7/Cyclin H/MNAT1, sequence (P51948 whole entry, further chain): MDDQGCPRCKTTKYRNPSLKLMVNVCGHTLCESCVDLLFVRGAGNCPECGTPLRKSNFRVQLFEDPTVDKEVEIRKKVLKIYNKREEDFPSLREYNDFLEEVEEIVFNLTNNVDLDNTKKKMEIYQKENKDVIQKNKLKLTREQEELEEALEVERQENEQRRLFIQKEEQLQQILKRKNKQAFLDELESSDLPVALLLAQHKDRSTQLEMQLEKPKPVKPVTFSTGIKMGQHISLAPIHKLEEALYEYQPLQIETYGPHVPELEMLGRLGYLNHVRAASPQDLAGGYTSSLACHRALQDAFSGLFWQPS

MDA-MB-468 [7] = assay: Antiproliferative activity against human MDA-MB-468 cells after 24 hrs by MTT assay; type: functional, cell-based; conditions: MDA-MB-468, 24 h
MDA-MB-468 [8] = assay: Antiproliferative activity against human MDA-MB-468 cells after 48 hrs by MTT assay; type: functional, cell-based; conditions: MDA-MB-468, 48 h
MDA-MB-468 [9] = assay: Antiproliferative activity against human MDA-MB-468 cells after 72 hrs by MTT assay; type: functional, cell-based; conditions: MDA-MB-468, 72 h
MDA-MB-468 [10] = assay: Cell cycle arrest in human MDA-MB-468 cells assessed as accumulation at G1 phase at 15 uM after 24 hrs by propidium iodide staining based flow cytometry (reference value: 46.38%); type: functional
MDA-MB-468 [11] = assay: Cell cycle arrest in human MDA-MB-468 cells assessed as accumulation at G2 phase at 15 uM after 24 hrs by propidium iodide staining based flow cytometry (reference value: 14.16%); type: functional
MDA-MB-468 [12] = assay: Cell cycle arrest in human MDA-MB-468 cells assessed as accumulation at S phase at 15 uM after 24 hrs by propidium iodide staining based flow cytometry (reference value: 39.46%); type: functional
[13] = target: Cyclin-dependent kinase 2 (Homo sapiens) (UniProt P24941); assay: Inhibition of CDK2 in human MDA-MB-468 cells assessed as decrease in CDK2 phosphorylation at […] residues at 15 uM after 12 to 26 hrs by Western blot analysis; type: cell-based
[14] = target: Cyclin-dependent kinase 2 (Homo sapiens) (UniProt P24941); assay: Inhibition of CDK2 in human MDA-MB-468 cells assessed as decrease in cyclin E phosphorylation at Thr62 residues at 15 uM after 12 to 26 hrs by Western blot analysis; type: cell-based
MDA-MB-468 [15] = assay: Induction of morphological changes in human MDA-MB-468 cells at 15 uM after 6 to 24 hrs by Hoechst 33258 staining based fluorescence microscopy; type: functional, cell-based
MDA-MB-468 [16] = assay: Induction of apoptosis in human MDA-MB-468 cells assessed as viable cells at 15 uM after 6 hrs by Annexin V-FITC/PI staining based flow cytometry (reference value: 91.43%); type: functional; conditions: MDA-MB-468, 6 h, read-out: Activity
MDA-MB-468 [17] = assay: Induction of apoptosis in human MDA-MB-468 cells assessed as early apoptotic cells at 15 uM after 6 hrs by Annexin V-FITC/PI staining based flow cytometry (reference value: 5.74%); type: functional
MDA-MB-468 [18] = assay: Induction of apoptosis in human MDA-MB-468 cells assessed as late apoptotic cells at 15 uM after 6 hrs by Annexin V-FITC/PI staining based flow cytometry (reference value: 2.49%); type: functional
MDA-MB-468 [19] = assay: Induction of apoptosis in human MDA-MB-468 cells assessed as necrotic cells at 15 uM after 6 hrs by Annexin V-FITC/PI staining based flow cytometry (reference value: 0.34%); type: functional
MDA-MB-468 [20] = assay: Induction of apoptosis in human MDA-MB-468 cells assessed as viable cells at 15 uM after 12 hrs by Annexin V-FITC/PI staining based flow cytometry (reference value: 91.43%); type: functional; conditions: MDA-MB-468, 12 h, read-out: Activity
MDA-MB-468 [21] = assay: Induction of apoptosis in human MDA-MB-468 cells assessed as early apoptotic cells at 15 uM after 12 hrs by Annexin V-FITC/PI staining based flow cytometry (reference value: 5.74%); type: functional
MDA-MB-468 [22] = assay: Induction of apoptosis in human MDA-MB-468 cells assessed as late apoptotic cells at 15 uM after 12 hrs by Annexin V-FITC/PI staining based flow cytometry (reference value: 2.49%); type: functional
MDA-MB-468 [23] = assay: Induction of apoptosis in human MDA-MB-468 cells assessed as necrotic cells at 15 uM after 12 hrs by Annexin V-FITC/PI staining based flow cytometry (reference value: 0.34%); type: functional
MDA-MB-468 [24] = assay: Induction of apoptosis in human MDA-MB-468 cells assessed as viable cells at 15 uM after 24 hrs by Annexin V-FITC/PI staining based flow cytometry (reference value: 91.43%); type: functional; conditions: MDA-MB-468, 24 h, read-out: Activity
MDA-MB-468 [25] = assay: Induction of apoptosis in human MDA-MB-468 cells assessed as early apoptotic cells at 15 uM after 24 hrs by Annexin V-FITC/PI staining based flow cytometry (reference value: 5.74%); type: functional
MDA-MB-468 [26] = assay: Induction of apoptosis in human MDA-MB-468 cells assessed as late apoptotic cells at 15 uM after 24 hrs by Annexin V-FITC/PI staining based flow cytometry (reference value: 2.49%); type: functional
MDA-MB-468 [27] = assay: Induction of apoptosis in human MDA-MB-468 cells assessed as necrotic cells at 15 uM after 24 hrs by Annexin V-FITC/PI staining based flow cytometry (reference value: 0.34%); type: functional
[28] = target: Cyclin-dependent kinase 2 (Homo sapiens) (UniProt P24941); assay: Inhibition of CDK2 in human MDA-MB-468 cells assessed as increase in bax expression level at 15 uM measured up to 36 hrs by Western blot analysis; type: cell-based
[29] = target: Cyclin-dependent kinase 2 (Homo sapiens) (UniProt P24941); assay: Inhibition of CDK2 in human MDA-MB-468 cells assessed as increase in bim expression level at 15 uM measured up to 36 hrs by Western blot analysis; type: cell-based
MDA-MB-468 [30] = assay: Effect on cyclin E level in human CDK2-siRNA MDA-MB-468 cells at 15 uM by Western blot analysis; type: functional, cell-based
MDA-MB-468 [31] = assay: Effect on bim level in human CDK2-siRNA MDA-MB-468 cells at 15 uM by Western blot analysis; type: functional, cell-based

## COc1ccc(Nc2ccnc(N3CCC(NC(=O)c4cccc(C)c4)CC3)n2)cc1
[1]
  IC50: 474 nM

## COc1ccc(Nc2ccnc(N3CCC(NC(=O)c4ccc(C)cc4)CC3)n2)cc1
[1]
  IC50: 378 nM

## COc1ccc(Nc2ccnc(N3CCC(NC(=O)c4ccc(OC)cc4)CC3)n2)cc1
[1]
  IC50: 276 nM

## Cc1ccc(C(=O)NC2CCN(c3nc(C)cc(Nc4ccc(F)cc4)n3)CC2)cc1
[1]
  IC50: 288 nM

## Cc1cccc(C(=O)NC2CCN(c3nccc(Nc4ccccc4C)n3)CC2)c1
[1]
  IC50: 288 nM

## Cc1ccc(C(=O)NC2CCN(c3nccc(Nc4ccc(F)cc4)n3)CC2)cc1
[1]
  IC50: 276 nM

## Cc1cccc(C(=O)NC2CCN(c3nc(C)cc(Nc4ccc(F)cc4)n3)CC2)c1
[1]
  IC50: 380 nM

## O=C(NC1CCN(c2nccc(Nc3ccc(F)cc3)n2)CC1)c1ccccc1F
[1]
  IC50: 241 nM

## Cc1cccc(C(=O)NC2CCN(c3nccc(Nc4ccc(F)cc4)n3)CC2)c1
[1]
  IC50: 386 nM

## Cc1ccccc1Nc1ccnc(N2CCC(NC(=O)c3cccc(Cl)c3)CC2)n1
[1]
  IC50: 501 nM

## COc1ccc(Nc2ccnc(N3CCC(NC(=O)c4cccc(Cl)c4)CC3)n2)cc1
[1]
  IC50: 313 nM

## COc1ccc(C(=O)NC2CCN(c3nccc(Nc4ccc(F)cc4)n3)CC2)cc1
MDA-MB-231
  growth inhibition (GI): Active
786-0
  growth inhibition (GI): Active
MDA-MB-468 [2]
  growth inhibition (GI): Active
HepG2
  growth inhibition (GI): Active
WM 266-4
  growth inhibition (GI): Active
MCF7
  growth inhibition (GI): Active
[3]
  inhibition: Active
[4]
  inhibition: Active
[5]
  inhibition: Active
[1]
  IC50: 45.8 to 54.3 nM
[6]
  IC50: 278 nM
CDK6/cyclin D3
  IC50: 54.3 to 73.7 nM
CDK7/Cyclin H/MNAT1
  IC50: 89.8 nM
MDA-MB-468 [7]
  IC50: 14300 nM
MDA-MB-468 [8]
  IC50: 8960 nM
MDA-MB-468 [9]
  IC50: 5740 nM
MDA-MB-468 [10]
  Activity: 65.11%
MDA-MB-468 [11]
  Activity: 9.64%
MDA-MB-468 [12]
  Activity: 25.25%
[13]
  inhibition: Active
[14]
  inhibition: Active
MDA-MB-468 [15]
  Activity: Active
MDA-MB-468 [16]
  viability at 15 µM: 89.2%
MDA-MB-468 [17]
  Activity: 4.62%
MDA-MB-468 [18]
  Activity: 5.28%
MDA-MB-468 [19]
  Activity: 0.87%
MDA-MB-468 [20]
  viability at 15 µM: 76.6%
MDA-MB-468 [21]
  Activity: 3.82%
MDA-MB-468 [22]
  Activity: 16.82%
MDA-MB-468 [23]
  Activity: 2.73%
MDA-MB-468 [24]
  viability at 15 µM: 65.8%
MDA-MB-468 [25]
  Activity: 6.02%
MDA-MB-468 [26]
  Activity: 24.68%
MDA-MB-468 [27]
  Activity: 3.46%
[28]
  inhibition: Active
[29]
  inhibition: Active
MDA-MB-468 [30]
  Activity: inactive
MDA-MB-468 [31]
  Activity: inactive

## COc1ccc(C(=O)NC2CCN(c3nc(C)cc(Nc4ccc(F)cc4)n3)CC2)cc1
[1]
  IC50: 54.2 nM

## Cc1cc(Nc2ccc(F)cc2)nc(N2CCC(NC(=O)c3ccc(F)cc3)CC2)n1
[1]
  IC50: 153 nM

## Cc1cc(Nc2ccc(F)cc2)nc(N2CCC(NC(=O)c3ccccc3F)CC2)n1
[1]
  IC50: 205 nM

## O=C(NC1CCN(c2nccc(Nc3ccc(F)cc3)n2)CC1)c1cccc(Cl)c1
[1]
  IC50: 206 nM

## COc1ccc(Nc2ccnc(N3CCC(NC(=O)c4ccc(F)cc4)CC3)n2)cc1
[1]
  IC50: 405 nM

## Cc1ccccc1Nc1ccnc(N2CCC(NC(=O)c3ccccc3F)CC2)n1
[1]
  IC50: 399 nM

## COc1ccc(Nc2ccnc(N3CCC(NC(=O)c4ccccc4F)CC3)n2)cc1
[1]
  IC50: 280 nM

## COc1ccc(C(=O)NC2CCN(c3nccc(Nc4ccccc4C)n3)CC2)cc1
[1]
  IC50: 286 nM

## Cc1ccccc1Nc1ccnc(N2CCC(NC(=O)c3ccc(F)cc3)CC2)n1
[1]
  IC50: 459 nM

## Cc1cc(Nc2ccc(F)cc2)nc(N2CCC(NC(=O)c3cccc(Cl)c3)CC2)n1
[1]
  IC50: 287 nM

## O=C(NC1CCN(c2nccc(Nc3ccc(F)cc3)n2)CC1)c1ccc(F)cc1
[1]
  IC50: 151 nM

## Cc1ccc(C(=O)NC2CCN(c3nccc(Nc4ccccc4C)n3)CC2)cc1
[1]
  IC50: 567 nM

— ChEMBL document CHEMBL4118232, “Design, synthesis and biological evaluation of pyrimidine derivatives as novel CDK2 inhibitors that induce apoptosis and cell cycle arrest in breast cancer cells” (Bioorg Med Chem, 2018)
